According to US6632798B2, “Methods for inhibiting angiogenesis” (Antigen Biologicals Corporation, priority 2001, dated 2003):
Marks after values point to notes of the source that are not given here.

Columns and labels:
[1] = test system: blood vessels in the chick chorioallantoic membrane (CAM); test: chick chorioallantoic membrane (CAM) assay, injection into the yolk sac; assay type: in vivo, chick embryo; conditions: for Number Nodes + Ends (mean ± S.E.): control 271 ± 25, P < 0.0001 vs control
Text: Compounds suitable for use in the methods of the present invention can readily be identified using in vitro and in vivo screening assays. Such assays may screen for the ability of a particular compound to inhibit angiogenesis or the vascularization of endothelial cells in vitro and in vivo. For instance, the chick embryo chorioallantoic membrane (CAM) assay, which is described in more detail below, can be used to screen a given compound for its ability to inhibit vascularization. In the chorioallantoic membrane assay as performed in this invention, fertilized chick embryos are injected with a compound on day 3 or 4. The embryos are then allowed to develop for […] post injection upon which the shell is cracked and the chorioallantoic membrane is photographed. Based on the number of blood vessel nodes and ends present in the CAM the complexity of vascularization can be assessed. This assay can be used to assess the anti-angeogenic properties of the compounds in this invention. It will be readily apparent to those skilled in the art that the compounds in this invention can be administered alone, in the form of a pharmaceutically acceptable salt and/or in the form of a pharmaceutical composition. This example illustrates the anti-angiogenic properties of Oleuropein in the chick chorioallantoic membrane assay (CAM). The endpoint of the CAM assay was a quantitative determination of the number of branch points and ends of blood vessels in the chorioallantoic membrane. Such a quantitation would illustrate the complexity of the blood vasculature in the developing chorioallantoic membrane. The decrease in the complexity of the blood vasculature of the chorioallantoic membrane as a result of the application of Oleuropein indicates its anti-angiogenic properties. The CAM in the developing chick embryo is an excellent in vivo system for studying angiogenesis, because there is ongoing new blood vessel growth. The CAM assay involves the monotering of the blood vasculature of the developing chorioallantoic membrane of live chick embryos. Various CAM assay approaches have been developed. These include the culturing of live chick embryos in Petri dishes under special sterile conditions. Another approach has been to cut a window in the shell of fertilized eggs and directly apply the compound to be studied in the window using a filter paper. We used a modified approach to the CAM assay, which includes a less invasive method for introducing the compound Oleuropein. Fertilized chicken eggs where candled on the third day of development. The blood vasculature and the yolk were identified. A small 1 mm hole was made in the shell. A small gauge needle carrying 0.4 ml of Oleuropein diluted in saline/water was injected directly into the yolk sac. The hole was taped and the eggs were returned to the incubator for further development. After 3 days the eggs were removed and cracked in a white dish and the chorioallantoic membrane was photographed. Control eggs were injected with saline/water. Fresh fertile eggs were incubated for three days in a standard egg incubator. Temperature and humidity were kept constant at 100° F. and 65% respectively. On Day 3, eggs were […] using a police flash light. Embryo and yolk were identified. The surface of the shell was cleaned with an alcohol swab. The egg shell was pierced with a lancet making a 1 millimeter hole. A needle was used to withdraw 0.5 ml of yolk. A 0.5 ml injection was administered directly into the yolk sack. […] Experimental eggs were injected with a 0.1% and 1.0% concentration of Oleuropein. Control eggs were injected with an equivalent amount of water. After injection the hole was covered with a small piece of scotch tape and the eggs were returned to the incubator for further development. On day 3 post injection the eggs were removed from the incubator and […]. They were cracked gently using a butter knife over a white dish. Embryo and CAM were carefully layed out for observation and photography. […]

[2] = test system: induced blood vasculature of the adult mouse ear; test: adult mouse ear model, blood vessel growth induced by sodium hydroxide burn; assay type: in vivo; conditions: 0.025 grams in 0.25 ml PBS intraperitoneally once a day, 3 days before and 3 days after NaOH burn, FIG. 7
Text: This example illustrates the anti-angiogenic properties of Oleuropein in the adult mouse ear model. The endpoint of the adult mouse ear model assay was a direct visualization of the number of branch points and ends of blood vessels. Such visualization would illustrate the complexity of the blood vasculature in the adult mouse ear. The decrease in the complexity of the induced blood vasculature of the adult mouse ear as a result of the application of Oleuropein would indicate its anti-angiogenic properties.
In the previous model (the CAM in the developing chick embryo), although an excellent in vivo system for studying angiogenesis, because there is ongoing new blood vessel growth in the growing embryo, we tested another model in assessing whether Oleuropein can inhibit induced blood vessel growth in an adult mammal. The model we chose to use was the adult mouse ear. The mouse ear is vascularized and is thin enough to be directly visualized by a light microscope. If a stimulus is applied to the adult mouse ear existing blood vessels are capable of sprouting new ones (angiogenesis). Using this model anti-angiogenic compounds can be tested for their effects. We applied a sodium hydroxide burn, which stimulated the existing blood vessels in the adult mouse ear to sprout new blood vessels. […]

[3] = Oleuropein treated eggs, FIG. 5

C/C=C1/[C@H](O[C@@H]2O[C@H](CO)[C@@H](O)[C@H](O)[C@H]2O)OC=C(C(=O)OC)[C@H]1CC(=O)OCCc1ccc(O)c(O)c1 [Oleuropein]
effect on CAM vasculature (photographs) ([1]; 0.93 μmol/egg, FIG. 2 vs control FIG. 3): potently inhibited CAM vasculature | % Inhibition of blood vessel growth compared to control ([1]; 0.93 μmole/egg): 73% | Number Nodes + Ends (mean ± S.E.) ([1]; 0.93 μmole/egg into yolk sac of three-day-old chick embryos): 72 ± 11^b | effect on CAM vasculature (photographs) ([1]; 9.3 μmol/egg, FIG. 1 vs control FIG. 3): number of blood vessels is greatly diminished and branching is less complex than in controls | % Inhibition of blood vessel growth compared to control ([1]; 9.3 μmole/egg): 84% | Number Nodes + Ends (mean ± S.E.) ([1]; 9.3 μmole/egg into yolk sac of three-day-old chick embryos): 44 ± 5.3^a | CAM diameter, smaller than control CAM [1, 3]: about 50% | embryo size, smaller than untreated control embryos [1, 3]: about 60% | embryo viability ([1]; higher dose of Oleuropein): did not effect embryo viability | inhibition of induced blood vessel growth in the ear (photographs) [2]: potently inhibited existing blood vessels from sprouting
